Results from patent US20220133761A1, “NEUTROPHIL APOPTOSIS INDUCED BY NANOPARTICLES FOR TREATING INFLAMMATORY DISEASES” (WASHINGTON STATE UNIVERSITY, priority 2020, published 2022).

Experiments:
[1] = system: LPS-challenged mice; assay: Survival study in sepsis mouse model (i.p. LPS 50 mg/kg); format: in vivo; details: 72 h, 0.2 mg/kg DOX i.v. 4 h after i.p. LPS 50 mg/kg
Protocol: Adult CD-1 mice were i.p. injected with LPS (50 mg/kg) in the mouse sepsis model. 4 hours later, the LPS-challenged mice were grouped randomly (10 mice per group) and treated (i.v.) with PBS, free DOX (0.2 mg/kg), and prodrug DOX-hyd-BSA NPs (equal to 0.2 mg/kg of free DOX). The animals were monitored every 6 h in the first 12 h followed by monitoring mice every 12 h in 72 h.

[2] = system: LPS-challenged mice; assay: Acute lung inflammation mouse model (i.t. LPS), BALF neutrophils and cytokines; format: in vivo; details: vs free DOX and DOX-ab-BSA NPs
Protocol: Mice were anesthetized, and placed in a supine position head up on a board tilted at 15°. Afterwards, 10 mg/kg of LPS in HBSS was intratracheally (i.t.) administrated to mice with a FMJ-250 High Pressure Syringe (Penn-Century, Wyndmoor, Pa.). Mice were held upright for 2 min after administration.
Mice were challenged with i.t. injection of LPS (10 mg/kg). […] At 20 h post-drug administration, the mice were anesthetized with i.v. injection of a mixture of ketamine and xylazine. The BALF was collected by inserting a needle into the upper trachea. 0.9 mL HBSS was infused into the lungs and carefully withdrawn to obtain BALF. This process was repeated three times. BALF was collected and centrifuged at 350 g for 10 min at 4° C. The supernatant was collected for ELISA analysis. Afterwards, the cells were re-suspended in 0.5 ml of HBSS. The total cell number was determined with a hemocytometer.
Flow cytometry was utilized to quantify neutrophils in BALF. In detail, neutrophils from BALF were washed with 1 mL of 5% BSA in HBSS and centrifuged at 350 g for 10 min at 4° C. for three times, which was finally re-suspended in 400 μL of 5% BSA in HBSS. 3 μL of Alexa Fluor-647-labeled anti-mouse LY-6G antibody was added and incubated for 20 min in the dark, followed by washing with 1 mL of 0.1% BSA in HBSS under centrifugation for three times. Samples were then re-suspended in 400 μL 0.1% BSA in HBSS and filtered by a 100 μm filter, and analyzed by flow cytometer (Accuri C6 flow cytometer, BD Biosciences, San Jose, Calif.).
BALF was collected and centrifuged at 350 g for 10 min as described above. Supernatants from BALF were harvested for ELISA analysis. Concentrations of TNF-α, IL-6 and IL-1β in supernatants were determined with commercial ELISA kits according to the manufacturer's instructions (Biolegend, San Diego, Calif.). The triplicate experiment was conducted.

[3] = In vitro drug release profile (dialysis, 37 C); format: physicochemical
Protocol: Release profiles of DOX from NPs were studied using dialysis method at 37° C.(33) Briefly, 3 mg of NPs was dispersed in 3 mL (Ve) PBS at different pH, and then was placed in a dialysis bag (MWCO 3500 Da). The dialysis bag was immersed in 47 mL PBS (pH 7.4, 6.5 or 5.0) in a beaker. The beaker was then placed in a 37° C. water bath and stirred at 110 rpm. The samples were drawn at desired time intervals and the drug concentration was measured using UV-Vis absorption. The experiments were carried out in triplicate at each pH value. The accumulative drug release percent (Er) was calculated based on equation (1).
where, mdrug represents the amount of DOX in NPs, V0 was the whole volume of release media (V0=50 mL), Ci represents the concentration of DOX in the ith sample.

[4] = system: LPS-challenged mice; assay: Therapeutic efficacy in sepsis mouse model (neutrophils, cytokines, MPO in blood, BALF, organs); format: in vivo
Protocol: Adult CD-1 mice were i.p. administrated with LPS (50 mg/kg). 4 hours later, the mice were grouped randomly (10 mice per group) and i.v. injected with PBS, free DOX and DOX-hyd-BSA NPs (equal to 0.2 mg kg^−1 of free DOX), respectively. The healthy mice were used as […]. At predetermined time points (16 h and 72 h after LPS challenge), mouse BALF, blood and major organs were collected. Cell number and inflammatory factors (TNF-α, IL-6 and IL-1β) in BALF were determined by hemocytometer and ELISA, respectively as aforementioned. Blood was collected as described above. The plasma was harvested for ELISA assay after the blood was centrifuged at 1500 g for 20 min. Cell number was counted as above. The organs were homogenized with PBS (100 mg/mL) to obtain the pipettable homogenate for myeloperoxidase (MPO) activity and ELISA assay.

[5] = system: human neutrophils; assay: Uptake of nanoparticles by human neutrophils in vitro (flow cytometry); format: cell-based; details: 30 ug/ml, 2 h
Protocol: FIG. 15 show novel data of uptake of DOX-hdy-BSA NPs by human neutrophils. Human neutrophils were incubated with DOX-hyd-BSA NPs (the concentration at 30 ug/ml) for 2 h, and then the cells were washed, and they were analyzed by flowcytometry.
It is also to be noted that the methods herein also pertain to making human albumin nanoparticles similar to BSA NPs. […] Human neutrophils were incubated with DOX-hyd-BSA NPs (the concentration at 30 ug/ml) for 2 h, and then the cells were washed and analyzed by flowcytometry.

[6] = Serum stability of nanoparticles in PBS with 20% FBS; format: physicochemical; details: pH 7.4, incubation for 4 days
Protocol: Particle size and polydispersity indexes (PDI) were measured using Malvern Zetasizer Nano90 (Westborough, Mass.). The samples were incubated in PBS at pH 7.4 for 2 h, and the measurements were conducted in a 1.0 mL quartz cuvette using a diode laser of 633 nm at 25° C. and a scattering angle was fixed at 90°. To evaluate their serum stability, nanoparticles were dispersed in 20% FBS PBS solution (pH 7.4) at a final concentration of 1 mg/mL. Nanoparticle sizes were measured at the predefined time points. Transmission electron microscopy (TEM) of nanoparticles was also performed using a FEI Technai G2 20 Twin TEM (Hillsboro, Oreg.).

[7] = system: differentiated HL60 cells; assay: Uptake of DOX-hyd-BSA NPs by differentiated HL60 cells; format: cell-based, human; details: 10^6 cells/mL, 2 h at different DOX concentrations; time course at 30 μg/mL DOX
Protocol: FIG. 5C and FIG. 5D show resultant uptake data of the present application, wherein DOX-hyd-BSA NPs by differentiated HL60 cells were evaluated in vitro.

[8] = 0.2 mg/kg (DOX) i.v. 4 h after i.t. LPS
[9] = first 16 h after LPS challenge, vs PBS

**Q.** With DOX-hyd-BSA NPs as the substance, how does the mouse survival [1] read?
**A.** 70%

**Q.** And the “neutrophils in BALF” value ([2]; 0.2 mg/kg (DOX) i.v. 4 h after i.t. LPS 10 mg/kg)?
**A.** surprisingly and dramatically shown to decrease compared to controls

**Q.** What about the “IL-1β in BALF” value [2, 8] of the same substance?
**A.** decreased

**Q.** And the “IL-6 in BALF” value [2, 8]?
**A.** decreased

**Q.** And the “TNF-α in BALF” value [2, 8]?
**A.** decreased

**Q.** What about the “cumulative DOX release” value ([3]; pH 5.0, first 10 h) of the same substance?
**A.** 80%

**Q.** What about the “cumulative DOX release” value ([3]; pH 5, in 30 h) of the same substance?
**A.** completely released DOX

**Q.** What about the “cumulative DOX release” value ([3]; pH 6.5, first 10 h) of the same substance?
**A.** 60%

**Q.** And the “inflammation in other organs (MPO, TNF-α, IL-6, IL-1β)” value ([4]; 16 h and 72 h post-LPS challenge, vs PBS)?
**A.** significantly decreased inflammation in other organs

**Q.** What about the “neutrophil number and cytokine contents” value ([4]; 72 h after LPS challenge) of the same substance?
**A.** resumed to their levels as in healthy mice

**Q.** And the “cytokines in blood and lung BALF” value [4, 9]?
**A.** decreased accordingly

**Q.** What about the “neutrophils in blood and lung BALF” value [4, 9] of the same substance?
**A.** dramatically decreased

**Q.** And the “neutrophil production in the bone marrow” value ([4]; neutrophil counts compared with healthy mice)?
**A.** did not impair neutrophil production in the bone marrow

**Q.** What about the “uptake by human neutrophils” value [5] of the same substance?
**A.** can be efficiently taken up

**Q.** What about the “serum stability (aggregation, diameter change)” value [6] of the same substance?
**A.** no aggregation (diameter change) was observed

**Q.** And the “DOX uptake by cells” value [7]?
**A.** taken up efficiently
